Results taken from US20250206727A1, “HETEROCYCLIC SUBSTITUTED AROMATIC COMPOUND, PREPARATION METHOD THEREFOR, HERBICIDAL COMPOSITION AND APPLICATION” (QINGDAO KINGAGROOT CHEMICAL COMPOUND CO., LTD., priority 2022, published 2025).

Tests used:
Assay in all cases: Post-emergence test on weeds (greenhouse, spray at 2-3 leaf stage)
Format in all cases: in vivo
Set-up in all cases: key: Level 10: completely dead; Level 9: growth control rate greater than or equal to 90% and less than 100%; Level 8: growth control rate greater than or equal to 80% and less than 90%; Level 7: growth control rate greater than or equal to 70% and less than 80%; Level 6: growth control rate greater than or equal to 60% and less than 70%; Level 5: growth control rate greater than or equal to 50% and less than 60%; Level 4: growth control rate greater than or equal to 40% and less than 50%; Level 3: growth control rate greater than or equal to 30% and less than 40%; Level 2: growth control rate greater than or equal to 20% and less than 30%; Level 1: growth control rate less than 20%; Level 0: no effect
Settings in all cases: 3 weeks after application
Setaria viridis = test system: Setaria viridis
Summary of the method: (§1)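 Pot-grown plants were spray-tower treated two weeks after sowing with compound in acetone/Tween 80 plus 1.5 L/ha methyl oleate EC, at rates from 500 to 7.5 g a.i./ha. Fresh-weight growth control was scored 0–10 after 3 weeks in the greenhouse, averaged over triplicates.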

Digitaria sanguinalis = test system: Digitaria sanguinalis
Summary of the method: as §1

Amaranthus retroflexus = test system: Amaranthus retroflexus
Summary of the method: as §1

Abutilon theophrasti = test system: Abutilon theophrasti
Summary of the method: as §1

Veronica polita = test system: Veronica polita
Summary of the method: as §1

Echinochloa crus-galli = test system: Echinochloa crus-galli
Summary of the method: as §1

CCSC(=O)C1(C)ON=C(c2cc(-c3ncc(C(F)(F)F)cc3Cl)c(F)cc2Cl)O1 (stereo not drawn) [Compound 85]
10: activity level (fresh weight growth control rate), Setaria viridis (Setaria viridis; 60 g a.i./ha) | activity level (fresh weight growth control rate), Digitaria sanguinalis (Digitaria sanguinalis; 60 g a.i./ha) | activity level (fresh weight growth control rate), Amaranthus retroflexus (Amaranthus retroflexus; 60 g a.i./ha) | activity level (fresh weight growth control rate), Abutilon theophrasti (Abutilon theophrasti; 60 g a.i./ha) | activity level (fresh weight growth control rate), Veronica polita (Veronica polita; 60 g a.i./ha) | activity level (fresh weight growth control rate), Echinochloa crus-galli (Echinochloa crus-galli; 60 g a.i./ha)

CC1(C(=O)OCC2CC2)ON=C(c2cc(-c3ncc(C(F)(F)F)cc3Cl)c(F)cc2Cl)O1 (stereo not drawn) [Compound 126]
10: activity level (fresh weight growth control rate), Setaria viridis (Setaria viridis; 60 g a.i./ha) | activity level (fresh weight growth control rate), Digitaria sanguinalis (Digitaria sanguinalis; 60 g a.i./ha) | activity level (fresh weight growth control rate), Amaranthus retroflexus (Amaranthus retroflexus; 60 g a.i./ha) | activity level (fresh weight growth control rate), Abutilon theophrasti (Abutilon theophrasti; 60 g a.i./ha) | activity level (fresh weight growth control rate), Veronica polita (Veronica polita; 60 g a.i./ha) | activity level (fresh weight growth control rate), Echinochloa crus-galli (Echinochloa crus-galli; 60 g a.i./ha)

CCC1(C(=O)OC)ON=C(c2cc(-c3ncc(C(F)(F)F)cc3F)c(F)cc2Cl)O1 (stereo not drawn) [Compound 19]
10: activity level (fresh weight growth control rate), Setaria viridis (Setaria viridis; 60 g a.i./ha) | activity level (fresh weight growth control rate), Digitaria sanguinalis (Digitaria sanguinalis; 60 g a.i./ha) | activity level (fresh weight growth control rate), Amaranthus retroflexus (Amaranthus retroflexus; 60 g a.i./ha) | activity level (fresh weight growth control rate), Abutilon theophrasti (Abutilon theophrasti; 60 g a.i./ha) | activity level (fresh weight growth control rate), Veronica polita (Veronica polita; 60 g a.i./ha) | activity level (fresh weight growth control rate), Echinochloa crus-galli (Echinochloa crus-galli; 60 g a.i./ha)

COCCOC(=O)C1(C)ON=C(c2cc(-c3ncc(Cl)cc3Cl)c(F)cc2Cl)O1 (stereo not drawn) [Compound 111]
10: activity level (fresh weight growth control rate), Setaria viridis (Setaria viridis; 60 g a.i./ha) | activity level (fresh weight growth control rate), Digitaria sanguinalis (Digitaria sanguinalis; 60 g a.i./ha) | activity level (fresh weight growth control rate), Amaranthus retroflexus (Amaranthus retroflexus; 60 g a.i./ha) | activity level (fresh weight growth control rate), Abutilon theophrasti (Abutilon theophrasti; 60 g a.i./ha) | activity level (fresh weight growth control rate), Veronica polita (Veronica polita; 60 g a.i./ha) | activity level (fresh weight growth control rate), Echinochloa crus-galli (Echinochloa crus-galli; 60 g a.i./ha)

COC(=O)C1(C)ON=C(c2cc(-c3ncc(F)cc3Cl)c(F)cc2Cl)O1 (stereo not drawn) [Compound 14]
10: activity level (fresh weight growth control rate), Setaria viridis (Setaria viridis; 60 g a.i./ha) | activity level (fresh weight growth control rate), Digitaria sanguinalis (Digitaria sanguinalis; 60 g a.i./ha) | activity level (fresh weight growth control rate), Amaranthus retroflexus (Amaranthus retroflexus; 60 g a.i./ha) | activity level (fresh weight growth control rate), Abutilon theophrasti (Abutilon theophrasti; 60 g a.i./ha) | activity level (fresh weight growth control rate), Veronica polita (Veronica polita; 60 g a.i./ha) | activity level (fresh weight growth control rate), Echinochloa crus-galli (Echinochloa crus-galli; 60 g a.i./ha)

CCOC(=O)C1(CC)ON=C(c2cc(-c3ncc(C(F)(F)F)cc3F)c(F)cc2Cl)O1 (stereo not drawn) [Compound 58]
10: activity level (fresh weight growth control rate), Setaria viridis (Setaria viridis; 60 g a.i./ha) | activity level (fresh weight growth control rate), Digitaria sanguinalis (Digitaria sanguinalis; 60 g a.i./ha) | activity level (fresh weight growth control rate), Amaranthus retroflexus (Amaranthus retroflexus; 60 g a.i./ha) | activity level (fresh weight growth control rate), Abutilon theophrasti (Abutilon theophrasti; 60 g a.i./ha) | activity level (fresh weight growth control rate), Veronica polita (Veronica polita; 60 g a.i./ha) | activity level (fresh weight growth control rate), Echinochloa crus-galli (Echinochloa crus-galli; 60 g a.i./ha)

CCOC(=O)C1(C)ON=C(c2cc(-c3ncc(C(F)(F)F)cc3Cl)c(F)cc2Cl)O1 (stereo not drawn) [Compound 39]
10: activity level (fresh weight growth control rate), Setaria viridis (Setaria viridis; 15 g a.i./ha) | activity level (fresh weight growth control rate), Digitaria sanguinalis (Digitaria sanguinalis; 15 g a.i./ha) | activity level (fresh weight growth control rate), Amaranthus retroflexus (Amaranthus retroflexus; 15 g a.i./ha) | activity level (fresh weight growth control rate), Abutilon theophrasti (Abutilon theophrasti; 15 g a.i./ha) | activity level (fresh weight growth control rate), Veronica polita (Veronica polita; 15 g a.i./ha) | activity level (fresh weight growth control rate), Echinochloa crus-galli (Echinochloa crus-galli; 15 g a.i./ha)

CC1(C(=O)OCCF)ON=C(c2cc(-c3ncc(C(F)(F)F)cc3Cl)c(F)cc2Cl)O1 (stereo not drawn) [Compound 99]
10: activity level (fresh weight growth control rate), Setaria viridis (Setaria viridis; 60 g a.i./ha) | activity level (fresh weight growth control rate), Digitaria sanguinalis (Digitaria sanguinalis; 60 g a.i./ha) | activity level (fresh weight growth control rate), Amaranthus retroflexus (Amaranthus retroflexus; 60 g a.i./ha) | activity level (fresh weight growth control rate), Abutilon theophrasti (Abutilon theophrasti; 60 g a.i./ha) | activity level (fresh weight growth control rate), Veronica polita (Veronica polita; 60 g a.i./ha) | activity level (fresh weight growth control rate), Echinochloa crus-galli (Echinochloa crus-galli; 60 g a.i./ha)

Cc1ccc(C=NOC(=O)C2(C)ON=C(c3cc(-c4ncc(C(F)(F)F)cc4Cl)c(F)cc3Cl)O2)s1 (racemic) [Compound 144]
10: activity level (fresh weight growth control rate), Setaria viridis (Setaria viridis; 60 g a.i./ha) | activity level (fresh weight growth control rate), Digitaria sanguinalis (Digitaria sanguinalis; 60 g a.i./ha) | activity level (fresh weight growth control rate), Amaranthus retroflexus (Amaranthus retroflexus; 60 g a.i./ha) | activity level (fresh weight growth control rate), Abutilon theophrasti (Abutilon theophrasti; 60 g a.i./ha) | activity level (fresh weight growth control rate), Veronica polita (Veronica polita; 60 g a.i./ha) | activity level (fresh weight growth control rate), Echinochloa crus-galli (Echinochloa crus-galli; 60 g a.i./ha)

CC(=NOC(=O)C1(C)ON=C(c2cc(-c3ncc(C(F)(F)F)cc3Cl)c(F)cc2Cl)O1)C(F)(F)F (racemic) [Compound 139]
10: activity level (fresh weight growth control rate), Setaria viridis (Setaria viridis; 60 g a.i./ha) | activity level (fresh weight growth control rate), Digitaria sanguinalis (Digitaria sanguinalis; 60 g a.i./ha) | activity level (fresh weight growth control rate), Amaranthus retroflexus (Amaranthus retroflexus; 60 g a.i./ha) | activity level (fresh weight growth control rate), Abutilon theophrasti (Abutilon theophrasti; 60 g a.i./ha) | activity level (fresh weight growth control rate), Veronica polita (Veronica polita; 60 g a.i./ha) | activity level (fresh weight growth control rate), Echinochloa crus-galli (Echinochloa crus-galli; 60 g a.i./ha)

CC1(C(=O)OCc2ccccc2F)ON=C(c2cc(-c3ncc(C(F)(F)F)cc3Cl)c(F)cc2Cl)O1 (racemic) [Compound 133]
10: activity level (fresh weight growth control rate), Setaria viridis (Setaria viridis; 60 g a.i./ha) | activity level (fresh weight growth control rate), Digitaria sanguinalis (Digitaria sanguinalis; 60 g a.i./ha) | activity level (fresh weight growth control rate), Amaranthus retroflexus (Amaranthus retroflexus; 60 g a.i./ha) | activity level (fresh weight growth control rate), Abutilon theophrasti (Abutilon theophrasti; 60 g a.i./ha) | activity level (fresh weight growth control rate), Veronica polita (Veronica polita; 60 g a.i./ha) | activity level (fresh weight growth control rate), Echinochloa crus-galli (Echinochloa crus-galli; 60 g a.i./ha)

CC1(C(=O)OCC(F)F)ON=C(c2cc(-c3ncc(C(F)(F)F)cc3Cl)c(F)cc2Cl)O1 (stereo not drawn) [Compound 101]
10: activity level (fresh weight growth control rate), Setaria viridis (Setaria viridis; 60 g a.i./ha) | activity level (fresh weight growth control rate), Digitaria sanguinalis (Digitaria sanguinalis; 60 g a.i./ha) | activity level (fresh weight growth control rate), Amaranthus retroflexus (Amaranthus retroflexus; 60 g a.i./ha) | activity level (fresh weight growth control rate), Abutilon theophrasti (Abutilon theophrasti; 60 g a.i./ha) | activity level (fresh weight growth control rate), Veronica polita (Veronica polita; 60 g a.i./ha) | activity level (fresh weight growth control rate), Echinochloa crus-galli (Echinochloa crus-galli; 60 g a.i./ha)

CCOC(=O)C1(C)ON=C(c2cc(-c3ncc(F)cc3Cl)c(F)cc2Cl)O1 (stereo not drawn) [Compound 35]
10: activity level (fresh weight growth control rate), Setaria viridis (Setaria viridis; 60 g a.i./ha) | activity level (fresh weight growth control rate), Digitaria sanguinalis (Digitaria sanguinalis; 60 g a.i./ha) | activity level (fresh weight growth control rate), Amaranthus retroflexus (Amaranthus retroflexus; 60 g a.i./ha) | activity level (fresh weight growth control rate), Abutilon theophrasti (Abutilon theophrasti; 60 g a.i./ha) | activity level (fresh weight growth control rate), Veronica polita (Veronica polita; 60 g a.i./ha) | activity level (fresh weight growth control rate), Echinochloa crus-galli (Echinochloa crus-galli; 60 g a.i./ha)

CC(=NOC(=O)C1(C)ON=C(c2cc(-c3ncc(C(F)(F)F)cc3Cl)c(F)cc2Cl)O1)C1CC1 (racemic) [Compound 172]
10: activity level (fresh weight growth control rate), Setaria viridis (Setaria viridis; 60 g a.i./ha) | activity level (fresh weight growth control rate), Digitaria sanguinalis (Digitaria sanguinalis; 60 g a.i./ha) | activity level (fresh weight growth control rate), Amaranthus retroflexus (Amaranthus retroflexus; 60 g a.i./ha) | activity level (fresh weight growth control rate), Abutilon theophrasti (Abutilon theophrasti; 60 g a.i./ha) | activity level (fresh weight growth control rate), Veronica polita (Veronica polita; 60 g a.i./ha) | activity level (fresh weight growth control rate), Echinochloa crus-galli (Echinochloa crus-galli; 60 g a.i./ha)

COC(=O)C1(C2CC2)ON=C(c2cc(-c3ncc(Cl)cc3F)c(F)cc2Cl)O1 (stereo not drawn) [Compound 21]
10: activity level (fresh weight growth control rate), Setaria viridis (Setaria viridis; 60 g a.i./ha) | activity level (fresh weight growth control rate), Digitaria sanguinalis (Digitaria sanguinalis; 60 g a.i./ha) | activity level (fresh weight growth control rate), Amaranthus retroflexus (Amaranthus retroflexus; 60 g a.i./ha) | activity level (fresh weight growth control rate), Abutilon theophrasti (Abutilon theophrasti; 60 g a.i./ha) | activity level (fresh weight growth control rate), Veronica polita (Veronica polita; 60 g a.i./ha) | activity level (fresh weight growth control rate), Echinochloa crus-galli (Echinochloa crus-galli; 60 g a.i./ha)

COC(=O)C1(C)ON=C(c2cc(-c3ncc(C(F)(F)F)c(F)c3F)c(F)cc2Cl)O1 (stereo not drawn) [Compound 4]
10: activity level (fresh weight growth control rate), Setaria viridis (Setaria viridis; 60 g a.i./ha) | activity level (fresh weight growth control rate), Digitaria sanguinalis (Digitaria sanguinalis; 60 g a.i./ha) | activity level (fresh weight growth control rate), Amaranthus retroflexus (Amaranthus retroflexus; 60 g a.i./ha) | activity level (fresh weight growth control rate), Abutilon theophrasti (Abutilon theophrasti; 60 g a.i./ha) | activity level (fresh weight growth control rate), Veronica polita (Veronica polita; 60 g a.i./ha) | activity level (fresh weight growth control rate), Echinochloa crus-galli (Echinochloa crus-galli; 60 g a.i./ha)
